Read-outs that look alike come from different tables or passages of the source.

From patent publication US7507760B2, “N-type calcium channel blockers” (Neuromed Pharmaceuticals Ltd., priority 2004, dated 2009) come the findings set out here.

For test [1], the target named is T1, rat brain N-type calcium channel subunits (α1B+α2δ+β1b cDNA subunits) (Rattus norvegicus, UniProt Q02294).
T1 construct: expressed in transfected cells; host or cells: HEK 293
The test can be described thus: N-type calcium channel block, whole cell patch clamp in HEK 293 cells. The test is classed as cell-based. As to conditions: holding potential −80 mV to +10 mV, 5 mM BaCl2. The text has this: Normalized dose-response curves were fit (Sigmaplot 4.0, SPSS Inc., Chicago, Ill.) by the Hill equation to determine IC50 values. Steady-state inactivation curves were plotted as the normalized test pulse amplitude following 5 s inactivating prepulses at +10 mV increments. Inactivation curves were fit (Sigmaplot 4.0) with the Boltzman equation, Ipeak (normalized)=1/(1+exp((V-Vh)z/25.6)), where V and Vh are the conditioning and half inactivation potentials, respectively, and z is the slope factor.
The methods of Example 11 were followed with slight modifications as will be apparent from the description below.
N-type calcium channel blocking activity was assayed in human embryonic kidney cells, HEK 293, stably transfected with the rat brain N-type calcium channel subunits (α1B+α2δ+β1b cDNA subunits). Briefly, cells were cultured in Dulbecco's modified eagle medium (DMEM) supplemented with 10% fetal bovine serum, 200 U/ml penicillin and 0.2 mg/ml streptomycin at 37° C. with 5% CO2. At 85% confluency, cells were split with 0.25% trypsin/1 mM EDTA and plated at 10% confluency on glass coverslips. At 12 hours the medium was. replaced and the cells transfected using a standard calcium phosphate protocol and the appropriate calcium channel cDNAs. Fresh DMEM was supplied and the cells transferred to 28° C./5% CO2. Cells were incubated for 1 to 2 days to whole cell recording.
Whole cell patch clamp experiments were performed using an Axopatch 200B amplifier (Axon Instruments, Burlingame, Calif.) linked to a personal computer equipped with pCLAMP software. The external and internal recording solutions contained, respectively, 5 mM BaCl2, 10 mM MgCl2, 10 mM HEPES, 40 mM TEACl, 10 mM glucose, 87.5 mM CsCl (pH 7.2) and 108 mM CsMS, 4 mM MgCl2, 9 mM EGTA, 9 mM HEPES (pH 7.2). Currents were typically elicited from a holding potential of −80 mV to +10 mV using Clampex software (Axon Instruments). Typically, currents were first elicited with low frequency stimulation (0.067 Hz) and allowed to stabilize prior to application of the compounds. The compounds were then applied during the low frequency pulse trains for two to three minutes to assess tonic block, and subsequently the pulse frequency was increased to 0.2 Hz to assess frequency dependent block. Data were analyzed using Clampfit (Axon Instruments) and SigmaPlot 4.0 (Jandel Scientific).

The target in test [2] is T2, human α1G T-type channels (Homo sapiens, UniProt O43497).
T2 construct: expressed in transfected cells
The experiment in a line: Block of α1G T-type channels, whole-cell patch clamp in HEK cells. The test is classed as cell-based. As to conditions: test pulse −40 mV. As for the experimental part:
Standard patch-clamp techniques were employed to identify blockers of T-type currents. Briefly, previously described HEK cell lines stably expressing human α1G T-type channels were used for all the recordings (passage #: 4-20, 37° C., 5% CO2). To obtain T-type currents, plastic dishes containing semi-confluent cells were positioned on the stage of a ZEISS AXIOVERT S100 microscope after replacing the culture medium with external solution (Table 3). Whole-cell patches were obtained using pipettes (borosilicate glass with filament, O.D.: 1.5 mm, I.D.: 0.86 mm, 10 cm length), fabricated on a SUTTER P-97 puller with resistance values of ˜5 MΩ (Table 4 ).
T-type currents were reliably obtained by using two voltage protocols: “non-inactivating”, and “inactivation”. In the non-inactivating protocol, the holding potential is set at −110 mV and with a pre-pulse at −100 mV for 1 second prior to the test pulse at −40 mV for 50 ms. In the inactivation protocol, the pre-pulse is at approximately −85 mV for 1 second, which inactivates about ^15% of the T-type channels.
Test compounds were dissolved in external solution, 0.1-0.01% DMSO. After ˜10 min rest, they were applied by gravity close to the cell using a WPI microfil tubing. The “non-inactivated” pre-pulse was used to examine the resting block of a compound. The “inactivated” protocol was employed to study voltage-dependent block. However, the initial data shown below were mainly obtained using the non-inactivated protocol only. IC50 values are shown for various compounds of the invention in Table 5.
For orientation: Patch clamp records ionic current or voltage across a cell membrane.

Where [3] appears, read: frequency dependent block, pulse frequency 0.2 Hz, read-out: IC50 at 0.2 Hz.
The mark [4] stands for this setting: tonic block, low frequency stimulation 0.067 Hz, read-out: IC50 at 0.067 Hz.
Setting [5] is: −80 mV (inactivation protocol), read-out: IC50 at −80 mV.
[6] abbreviates: −100 mV (non-inactivating protocol), read-out: IC50 at −100 mV.

T1 sequence (Q02294 whole entry): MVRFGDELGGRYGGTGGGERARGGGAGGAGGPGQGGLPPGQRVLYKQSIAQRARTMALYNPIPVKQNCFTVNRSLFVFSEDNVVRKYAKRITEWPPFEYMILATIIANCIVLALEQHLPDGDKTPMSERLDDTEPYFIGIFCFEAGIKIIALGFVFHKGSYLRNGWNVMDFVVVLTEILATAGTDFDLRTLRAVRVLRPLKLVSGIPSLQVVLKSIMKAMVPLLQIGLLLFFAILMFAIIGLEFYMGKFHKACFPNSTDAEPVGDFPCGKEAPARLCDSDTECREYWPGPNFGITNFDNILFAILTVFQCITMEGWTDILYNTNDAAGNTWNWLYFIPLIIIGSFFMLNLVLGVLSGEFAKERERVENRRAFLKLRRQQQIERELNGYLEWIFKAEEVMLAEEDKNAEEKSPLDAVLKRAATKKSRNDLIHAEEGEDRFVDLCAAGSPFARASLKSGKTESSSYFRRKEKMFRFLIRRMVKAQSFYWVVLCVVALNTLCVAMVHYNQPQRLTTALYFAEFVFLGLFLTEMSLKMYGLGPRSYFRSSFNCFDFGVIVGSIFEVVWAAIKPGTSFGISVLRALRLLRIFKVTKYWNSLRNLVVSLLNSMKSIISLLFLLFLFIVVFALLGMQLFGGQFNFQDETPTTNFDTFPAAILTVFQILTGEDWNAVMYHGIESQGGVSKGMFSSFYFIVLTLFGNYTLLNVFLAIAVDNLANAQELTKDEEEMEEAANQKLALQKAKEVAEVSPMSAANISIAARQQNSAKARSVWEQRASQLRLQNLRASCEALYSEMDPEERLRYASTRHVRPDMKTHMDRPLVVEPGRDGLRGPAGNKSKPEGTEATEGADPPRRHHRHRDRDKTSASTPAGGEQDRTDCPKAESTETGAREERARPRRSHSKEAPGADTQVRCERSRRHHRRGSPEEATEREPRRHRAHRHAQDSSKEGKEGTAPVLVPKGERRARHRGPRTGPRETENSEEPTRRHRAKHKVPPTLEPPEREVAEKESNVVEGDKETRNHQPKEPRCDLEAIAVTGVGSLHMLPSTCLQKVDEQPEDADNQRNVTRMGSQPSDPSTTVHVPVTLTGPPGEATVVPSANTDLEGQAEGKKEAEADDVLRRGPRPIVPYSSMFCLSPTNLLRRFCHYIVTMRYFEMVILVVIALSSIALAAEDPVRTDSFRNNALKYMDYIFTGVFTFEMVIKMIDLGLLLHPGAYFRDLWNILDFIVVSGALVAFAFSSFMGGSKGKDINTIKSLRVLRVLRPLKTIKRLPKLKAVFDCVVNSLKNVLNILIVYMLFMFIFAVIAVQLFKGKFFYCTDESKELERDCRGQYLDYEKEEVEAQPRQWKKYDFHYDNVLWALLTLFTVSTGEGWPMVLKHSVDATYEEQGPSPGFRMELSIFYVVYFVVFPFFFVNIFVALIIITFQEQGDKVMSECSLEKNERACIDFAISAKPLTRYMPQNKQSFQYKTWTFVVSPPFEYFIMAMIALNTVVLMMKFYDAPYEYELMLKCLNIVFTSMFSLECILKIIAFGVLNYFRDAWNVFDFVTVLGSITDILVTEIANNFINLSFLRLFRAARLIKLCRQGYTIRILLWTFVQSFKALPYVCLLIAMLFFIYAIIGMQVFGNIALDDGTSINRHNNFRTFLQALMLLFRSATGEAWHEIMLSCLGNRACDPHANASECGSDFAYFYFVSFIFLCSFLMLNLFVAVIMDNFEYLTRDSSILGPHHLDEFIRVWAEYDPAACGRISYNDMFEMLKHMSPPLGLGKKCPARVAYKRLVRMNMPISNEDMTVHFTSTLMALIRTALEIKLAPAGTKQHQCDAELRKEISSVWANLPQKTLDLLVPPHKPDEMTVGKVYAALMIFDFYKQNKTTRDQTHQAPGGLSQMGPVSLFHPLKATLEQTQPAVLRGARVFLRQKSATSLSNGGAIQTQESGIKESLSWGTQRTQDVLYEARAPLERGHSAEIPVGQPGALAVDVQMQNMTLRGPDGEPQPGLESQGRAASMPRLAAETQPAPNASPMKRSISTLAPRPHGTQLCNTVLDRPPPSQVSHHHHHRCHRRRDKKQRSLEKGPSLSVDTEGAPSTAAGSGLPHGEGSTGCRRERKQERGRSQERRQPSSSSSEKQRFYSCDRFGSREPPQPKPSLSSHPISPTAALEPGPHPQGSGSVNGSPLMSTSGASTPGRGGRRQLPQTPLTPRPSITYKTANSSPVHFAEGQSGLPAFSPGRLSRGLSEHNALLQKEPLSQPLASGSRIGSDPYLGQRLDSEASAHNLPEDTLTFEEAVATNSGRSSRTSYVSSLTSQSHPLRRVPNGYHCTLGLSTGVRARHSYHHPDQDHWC
T1 sequence (P54290 25-944 partner limits assumed): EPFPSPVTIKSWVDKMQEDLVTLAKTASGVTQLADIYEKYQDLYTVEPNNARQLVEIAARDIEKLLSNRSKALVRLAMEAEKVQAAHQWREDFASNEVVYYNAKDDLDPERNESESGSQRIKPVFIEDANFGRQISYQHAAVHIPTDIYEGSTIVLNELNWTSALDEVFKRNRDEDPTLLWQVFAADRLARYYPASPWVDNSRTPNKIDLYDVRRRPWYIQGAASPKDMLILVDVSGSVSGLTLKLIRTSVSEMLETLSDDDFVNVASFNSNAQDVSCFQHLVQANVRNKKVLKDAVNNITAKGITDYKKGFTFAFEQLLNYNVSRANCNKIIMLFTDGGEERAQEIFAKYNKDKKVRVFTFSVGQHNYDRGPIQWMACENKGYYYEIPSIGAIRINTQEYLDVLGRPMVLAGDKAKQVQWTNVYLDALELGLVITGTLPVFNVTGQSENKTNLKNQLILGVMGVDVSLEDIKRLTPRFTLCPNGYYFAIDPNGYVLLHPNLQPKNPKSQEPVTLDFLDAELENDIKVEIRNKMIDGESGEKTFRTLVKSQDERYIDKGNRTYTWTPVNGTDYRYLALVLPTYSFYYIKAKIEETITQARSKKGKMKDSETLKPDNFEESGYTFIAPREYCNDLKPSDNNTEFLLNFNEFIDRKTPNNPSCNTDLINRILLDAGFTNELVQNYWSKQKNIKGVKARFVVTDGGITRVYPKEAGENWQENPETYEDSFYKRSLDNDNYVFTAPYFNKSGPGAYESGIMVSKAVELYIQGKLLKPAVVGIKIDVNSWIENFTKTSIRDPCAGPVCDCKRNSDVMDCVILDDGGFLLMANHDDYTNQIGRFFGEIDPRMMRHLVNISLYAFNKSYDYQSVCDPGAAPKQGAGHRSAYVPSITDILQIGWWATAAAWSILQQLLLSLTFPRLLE
T1 sequence (P54290 945-1091 partner limits assumed): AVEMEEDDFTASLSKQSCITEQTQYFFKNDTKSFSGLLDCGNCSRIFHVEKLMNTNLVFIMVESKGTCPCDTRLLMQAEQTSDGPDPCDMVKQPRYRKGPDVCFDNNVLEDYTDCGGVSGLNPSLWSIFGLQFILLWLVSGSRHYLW
T1 sequence (P54283 whole entry partner): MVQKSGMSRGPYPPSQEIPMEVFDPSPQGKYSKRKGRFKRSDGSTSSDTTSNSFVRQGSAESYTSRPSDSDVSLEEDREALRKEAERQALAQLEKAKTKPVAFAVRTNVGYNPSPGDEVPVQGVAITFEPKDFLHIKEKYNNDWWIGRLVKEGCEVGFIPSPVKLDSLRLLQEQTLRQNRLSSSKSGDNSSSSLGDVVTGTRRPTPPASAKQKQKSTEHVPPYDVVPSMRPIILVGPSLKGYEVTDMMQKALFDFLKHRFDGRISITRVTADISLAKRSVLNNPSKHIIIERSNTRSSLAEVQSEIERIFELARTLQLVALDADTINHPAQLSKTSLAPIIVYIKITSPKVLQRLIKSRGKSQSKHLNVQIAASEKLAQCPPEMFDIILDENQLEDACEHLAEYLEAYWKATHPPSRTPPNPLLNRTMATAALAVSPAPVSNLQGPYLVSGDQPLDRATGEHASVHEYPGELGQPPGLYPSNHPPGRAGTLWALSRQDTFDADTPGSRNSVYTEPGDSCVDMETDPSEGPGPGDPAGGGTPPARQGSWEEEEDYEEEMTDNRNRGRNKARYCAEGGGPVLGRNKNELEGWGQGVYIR

`CN(C(=O)CC(c1ccccc1)c1ccccc1)[C@@H]1CCN(C(c2ccccc2)c2ccccc2)C1` [Compound P3, (R)-N-(1-Benzhydryl-pyrrolidin-3-yl)-N-methyl-3,3-diphenyl-propionamide]: the IC50 (usually the concentration at which inhibition is half-maximal) in test [1] (setting [3]) was 44 nM; in test [1] (setting [4]), 112 nM; in test [2] (setting [5]) it was 364 nM; in test [2] (setting [6]) it was 910 nM.

Regarding `CN(C(=O)CC(c1ccccc1)c1ccccc1)[C@H]1CCN(C(c2ccccc2)c2ccccc2)C1` [Compound P6, (S)-N-(1-Benzhydryl-pyrrolidin-3-yl)-N-methyl-3,3-diphenyl-propionamide], the IC50 in test [1] (setting [3]) was determined as 365 nM; in test [1] (setting [4]) it was 638 nM; in test [2] (setting [5]), 455 nM; in test [2] (setting [6]) it was 1160 nM.

Regarding `CN(C(=O)CC(c1ccccc1)c1ccccc1)[C@@H]1CCN(Cc2cccnc2)C1` [Compound P8, (R)-N-Methyl-3,3-diphenyl-N-(1-pyridin-3-ylmethyl-pyrrolidin-3-yl)-propionamide], the IC50 in test [1] (setting [3]) turned out to be 987 nM; in test [1] (setting [4]), 3000 nM. Also, the “IC50 at −80 mV” value in test [2] (−80 mV (inactivation protocol)) is listed as “No block”. In addition, the “IC50 at −100 mV” value in test [2] (−100 mV (non-inactivating protocol)) is given as “No block”.

In the case of `CN(C(=O)CC(c1ccccc1)c1ccccc1)[C@@H]1CCN(Cc2ccccn2)C1` [Compound P9, (R)-N-Methyl-3,3-diphenyl-N-(1-pyridin-2-ylmethyl-pyrrolidin-3-yl)-propionamide], the IC50 is 617 nM in test [1] (setting [3]), 1300 nM in test [1] (setting [4]), 160 to 2400 nM in test [2] (setting [5]) and 150 to 4500 nM in test [2] (setting [6]).

On to `CN(C(=O)CC(c1ccccc1)c1ccccc1)[C@@H]1CCN(C(c2ccccc2)c2ccncc2)C1` (stereo partly drawn) [Compound P10, (R)-N-Methyl-3,3-diphenyl-N-[1-(phenyl-pyridin-4-yl-methyl)-pyrrolidin-3-yl]-propionamide], for which the IC50 in test [1] (setting [3]) was found to be 520 nM; in test [1] (setting [4]) it was 714 nM; in test [2] (setting [5]), 882 nM; in test [2] (setting [6]), 3460 nM.

As to `CN(C(=O)CC(c1ccccc1)c1ccccc1)[C@@H]1CCN(C(c2ccccc2)c2cccnc2)C1` (stereo partly drawn) [Compound P11, (R)-N-Methyl-3,3-diphenyl-N-[1-(phenyl-pyridin-3-yl-methyl)-pyrrolidin-3-yl]-propionamide], the IC50 in test [1] (setting [3]) came to 302 nM; in test [1] (setting [4]), 386 nM; in test [2] (setting [5]), 374 nM; in test [2] (setting [6]), 1800 nM.

As to `CN(C(=O)CC(c1ccccc1)c1ccccc1)[C@@H]1CCN(C(c2ccccc2)c2ccccn2)C1` (stereo partly drawn) [Compound P12, (R)-N-Methyl-3,3-diphenyl-N-[1-(phenyl-pyridin-2-yl-methyl)-pyrrolidin-3-yl]-propionamide], the half-inhibitory concentration (IC50) in test [1] (setting [3]) is 285 nM; in test [1] (setting [4]), 362 nM; in test [2] (setting [5]) it was 335 nM; in test [2] (setting [6]), 647 nM.

Regarding `CN(C(=O)CC(c1ccccc1)c1ccccc1)[C@H]1CCN(Cc2ccncc2)C1` [Compound P13, (S)-N-Methyl-3,3-diphenyl-N-(1-pyridin-4-ylmethyl-pyrrolidin-3-yl)-propionamide], the IC50 in test [1] (setting [3]) is 471 nM; in test [1] (setting [4]), 913 nM; in test [2] (setting [5]) it was 488 nM; in test [2] (setting [6]), 5000 nM.

On to `CN(C(=O)CN(c1ccccc1)c1ccccc1)[C@H]1CCN(C(c2ccccc2)c2ccccc2)C1` [Compound P14, (S)-N-(1-Benzhydryl-pyrrolidin-3-yl)-2-diphenylamino-N-methyl-acetamide], for which the IC50 in test [1] (setting [3]) was found to be 252 nM; in test [1] (setting [4]), 366 nM; in test [2] (setting [5]), 99 nM; in test [2] (setting [6]), 609 nM.

On to `CN(CC(=O)N(c1ccccc1)c1ccccc1)[C@H]1CCN(C(c2ccccc2)c2ccccc2)C1` [Compound P15, (S)-2-[(1-Benzhydryl-pyrrolidin-3-yl)-methyl-amino]-N,N-diphenyl-acetamide], for which the IC50 in test [1] (setting [3]) came out at 216 nM; in test [1] (setting [4]), 287 nM; in test [2] (setting [5]) it was 115 nM; in test [2] (setting [6]), 692 nM.

Regarding `CN(C(=O)NC(c1ccccc1)c1ccccc1)[C@H]1CCN(C(c2ccccc2)c2ccccc2)C1` [Compound P16, (S)-3-Benzhydryl-1-(1-benzhydryl-pyrrolidin-3-yl)-1-methyl-urea], the IC50 in test [1] (setting [3]) was found to be 601 nM; in test [1] (setting [4]), 1030 nM; in test [2] (setting [5]), 926 nM; in test [2] (setting [6]), 2200 nM.
